Data: patent US5633277A, “Sulfonamide aminomethylene derivatives as immunosuppressants” (Miles Inc., priority 1995, dated 1997)

Legend:
[1] = biological target: FKBP (Homo sapiens, UniProt P62942); experiment: PPIase Inhibition Assay; assay type: biochemical
Protocol: 1) Inhibition of PPlase Activity
This assay follows in principle the procedure described in Kofron et al., 1991, Biochemistry 30:6127. The three main reagents used are PPIase, a substrate for PPIase, and a selected inhibitor compound of the present invention. The basic principle behind this assay is the conversion of the cis isomer of the substrate to the trans form, which conversion is catalyzed by PPIase. Essentially, inhibition of this PPIase activity is measured for the selected compounds. A peptide chymotrypsin substrate containing a proline in the P2 position is only cleaved by chymotrypsin when the Phe-Pro bond is in the trans isomeric configuration. In the presence of excess chymotrypsin, all of the trans peptide isomers are cleaved within approximately five seconds, leaving only cis forms.
The cis peptide will spontaneously convert to the trans isomer at a slow rate. The cis to trans conversion is catalyzed by isomerases at a much faster rate than this spontaneous conversion. Proteins with PPIase activity are examples of such isomerases. After isomerization, the peptide is cleaved by chymotrypsin releasing p-nitroaniline which can be monitored at 390 nm. The rate of release is then calculated using a first order rate plus offset equation utilizing the ENZFITTER program (Leatherbarrow, BIOSOFT, Cambridge, United Kingdom).
In a plastic cuvette are added 950 ul of ice cold assay buffer (25 mM HEPES, pH 7.8, 100 mM NaCl), 10 uL of FKBP (2.5 uM in 10 mM Tris-Cl pH 7.5,100 mM NACl, 1 mM dithiothreitol), 25 ul of chymotrypsin (50 mg/ml in 1 mM HCl) and 10 ul of the test compound at various concentrations in dimethyl sulphoxide. The reaction is initiated by addition of 5 ul of substrate (Succinyl-Ala-Phe-Pro-Phe-para-nitroanilide, 5 mg/ml in 235 mM LiCl in trifluoroethanol).
The absorbance at 390 nm versus time is monitored for 90 sec using a Beckman DU70 spectrophotometer. The absorbance versus time data files are transferred to an IBM XT computer and the rate constants determined using the commercial Enzfitter program. For each set of data, the uncatalyzed rate of conversion is measured and the uninhibited enzymatic rate determined. The data are expressed as % Inhibition and are calculated as follows: [formula] where kobs is the rate in the presence of a selected test compound, kuncat is the rate in the absence of enzyme, and kuninh is the rate in the presence of enzyme and absence of inhibitor. Data are plotted as percent inhibition versus concentration of inhibitor. The values of the concentration of inhibitor required for 50% inhibition of enzyme activity (IC50) were determined by nonlinear least squares regression analysis.

[2] = system: human T-cells; experiment: Suppression of Human T-Cell Proliferation Assay (mitogen-induced, [3H]-thymidine incorporation); assay type: cell-based; settings: Homo sapiens, T-cell; 72 hours incubation; mitogen stimulated; read-out: IC50 (inhibition of [3H]-thymidine incorporation of T-cells by 50%)
Excerpt: 2) Human T Lymphocyte Inhibition
Inhibition of mitogen-induced T-cell proliferation can be used to profile immunosuppressive activity of test compounds. In the description of the assay which follows, mitogen-induced T-cell proliferation was used to test the inhibitory potencies of select compounds of the present invention.
In an assay similar to that described by Bradley in Mishell et al. (Eds.), 1980, Selected Methods in Cellular Immunology, pp 156-161, W. H. Freeman & Co., San Fransisco, Calif., T-cells were stimulated by incubation with phytohemagglutinin (PPIA) which binds to cell surface molecules, including the T-cell receptor. This stimulation results in proliferation which can be measured by incorporation of [^3 H]-thymidine into cellular DNA.
The immunosuppressive properties of the compounds of the present invention can be determined by adding various concentrations of the compounds to these cultures and measuring the effect on T-cell proliferation.
Suppression of Human T-Cell Proliferation Assay
Fresh LeukoPaks were obtained from the New York Blood Center, New York, N.Y. The cells, including erythrocytes and leukocytes, were diluted with Hank's Balanced Salt Solution (HBSS) (GIBCO, Grand Island, N.Y.) and layered over Lymphoprep (Nycomed Pharma AS, Oslo, Norway) in sterile 50 ml conical centrifuge tubes. Lymphocytes were isolated at the Hank's/Nycomed interface after centrifugation at 2000×g, 4° C. for 15 min. The lymphocytes were washed with Minimal Essential Medium (GIBCO) containing 2% fetal bovine serum (FBS) (Sigma Chemical Co., St. Louis, Mo.), 1% HEPES buffer (GIBCO) and 1% Penicillin-Stretomycin solution (GIBCO).
T-cells were further purified essentially by sheep erythrocyte (SRBC) rosetting as described by Morimoto et al., 1983, J. Immunol. 130:157. The isolated lymphocytes were adjusted to 2×10^7 cells/ml and 5 ml aliquots of the cell suspension were incubated for 10 minutes at room temperature with 5 ml of a 5% SRBC (Cappel, Organon Technika Corp., West Chester, Pa.) suspension. The cells were gently pelleted by centrifugation at 300 rpm for 10 minutes, followed by a 1 hour incubation at room temperature to allow rosette formation. The cells were gently resuspended,layered over Lymphoprep and centrifuged for 30 minutes at 500×g. The pellet, containing rosetted T-cells and SRBC was treated with ice cold buffered ammonium chloride (GIBCO) to lyse the erythrocytes. T-cells were washed twice with HBSS.
Purified T-cells were resuspended at 2×10^6 cells/ml in complete culture medium composed of RPMI-1640 (Whittaker Bioproducts, Walkerville, Md.) with 10% FBS (Sigma), 2 mM L-glutamine (GIBCO), 1% Penicillin-Streptomycin (GIBCO) and 15 mM HEPES (GIBCO). In 96-well plates (Becton Dickinson, Lincoln Park, N.J.), 0.1 ml aliquots of T-cell suspension were mixed with 0.05 ml of 40 μg/ml PPIA-M (Sigma). The compounds of this invention were dissolved in dimethylsulfoxide at 10 mM and various dilutions in complete medium were added in duplicate wells (0.05 ml/well). The plates were incubated at 37° C. in a humidified atmosphere of 5% carbon dioxide and 95% air for 72 hours.
Proliferation was assessed by measurement of [3H]-thymidine incorporation. During the last 6 hours of incubation, the cells were pulse labelled with 1 μCi/well of [3H]-thymidine (New England Nuclear, Boston, Mass.). The cells were harvested onto glass fiber paper using a plate harvester and the radioactivity incorporated into cellular DNA corresponding to individual wells was measured by standard liquid scintillation counting methods. The mean counts per minute (CPM) of replicate wells was calculated and linear regression analysis of mean CPM versus compound concentration was used to determine the concentration of compound which would inhibit [^3 H]-thymidine incorporation of T-cells by 50% (IC50).

[3] = system: transplant patients; settings: cited from earlier work
[4] = system: FK506 binding protein (FKBP); settings: cited from earlier work
[5] = system: dogs; settings: Collier et al., 1988; cited from earlier work
[6] = system: NF-AT; settings: Schreiber and Crabtree, 1992; cited from earlier work
[7] = system: IL-2 production; settings: cited from earlier work
[8] = system: baboons; settings: Collier et al., 1988; cited from earlier work

Sequence of FKBP (P62942 whole entry): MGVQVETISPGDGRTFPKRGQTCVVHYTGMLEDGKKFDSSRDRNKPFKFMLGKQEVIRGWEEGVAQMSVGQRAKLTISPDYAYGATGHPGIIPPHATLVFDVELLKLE

Compound: CC(C)C[C@@H](CN1CCC[C@H]1C(=O)NCCCCc1ccccc1)NS(=O)(=O)CS(C)(=O)=O [Example 9, 1-[2-(S)-(Methylsulfonylmethanesulfonylamino)-4-methylpentyl]-L-proline 4-Phenylbutylamide]
- IC50 [1]: > 5 µM
- IC50 [2]: 4 µM

Compound: C=CC[C@@H]1/C=C(\C)C[C@H](C)C[C@H](OC)[C@H]2O[C@@](O)(C(=O)C(=O)N3CCCC[C@H]3C(=O)O[C@H](/C(C)=C/[C@@H]3CC[C@@H](O)[C@H](OC)C3)[C@H](C)[C@@H](O)CC1=O)[C@H](C)C[C@@H]2OC [FK506]
- effectiveness in transplant patients who do not respond to CsA ([3]; Tucci et al., 1989): effective in some transplant patients who do not respond to CsA
- absolute rate of clinical rejection vs current standard therapies ([3]; post-organ transplantation patients, Holechek, 1991): only slightly lower than with current standard therapies
- binding to FKBP (in words) [4]: bound
- vasculitis [5]: severe vasculitis
- NF-AT activity (in words) [6]: inhibited
- IL-2 production (in words) [7]: inhibit IL-2 production
- vasculitis [8]: severe vasculitis
